From ChEMBL document CHEMBL1821597, “Copper-mediated nuclease activity of jadomycin B” (Bioorg Med Chem, 2011)
Calls of active or inactive are those of the source. No cut-off for these calls is given here.

How the values were obtained:
[1] = test system: Nucleic Acid; assay: Induction of supercoiled pDesR3 DNA cleavage at 10 uM after 2 to 12 hrs by agarose gel electrophoresis; format: nucleic-acid assay
[2] = test system: Nucleic Acid; assay: Induction of single strand cleavage in supercoiled pDesR3 DNA at 10 uM after 2 to 12 hrs by agarose gel electrophoresis in presence of equimolar Cu(OAc)2; format: nucleic-acid assay
[3] = test system: Nucleic Acid; assay: Induction of single strand cleavage in supercoiled pDesR3 DNA at 10 uM after 3 hrs by agarose gel electrophoresis in presence of equimolar Cu(OAc)2 and catalase; format: nucleic-acid assay
[4] = test system: Nucleic Acid; assay: Induction of single strand cleavage in supercoiled pDesR3 DNA at 10 uM after 3 hrs by agarose gel electrophoresis in presence of equimolar Cu(OAc)2 and EDTA; format: nucleic-acid assay
[5] = test system: Nucleic Acid; assay: Induction of single strand cleavage in supercoiled pDesR3 DNA at 10 uM after 3 hrs by agarose gel electrophoresis in presence of equimolar Cu(OAc)2 and SOD; format: nucleic-acid assay
[6] = test system: Nucleic Acid; assay: Induction of single strand cleavage in supercoiled pDesR3 DNA at 10 uM after 3 hrs by agarose gel electrophoresis in presence of equimolar Cu(OAc)2 and NaN3; format: nucleic-acid assay
[7] = test system: Nucleic Acid; assay: Induction of single strand cleavage in supercoiled pDesR3 DNA at 10 uM after 3 hrs by agarose gel electrophoresis in presence of equimolar Cu(OAc)2 and t-BuOH; format: nucleic-acid assay
[8] = test system: Nucleic Acid; assay: Induction of single strand cleavage in supercoiled pDesR3 DNA at 10 uM after 3 hrs by agarose gel electrophoresis in presence of equimolar Cu(OAc)2 and DMSO; format: nucleic-acid assay
[9] = test system: Nucleic Acid; assay: Induction of double strand cleavage in supercoiled pDesR3 DNA at 10 uM after 2 to 12 hrs by agarose gel electrophoresis in presence of equimolar Cu(OAc)2; format: nucleic-acid assay
[10] = test system: Nucleic Acid; assay: Binding affinity at calf thymus DNA at 10 uM by UV-Vis spectrophotometer; format: nucleic-acid assay; conditions: Bos taurus
[11] = test system: Nucleic Acid; assay: Induction of single strand cleavage in laser-enhanced supercoiled pDesR3 DNA assessed as reduction in time required for single-strand break at 10 uM after 5 mins by agarose gel electrophoresis relative to control in presence of equimolar Cu(OAc)2; format: nucleic-acid assay; parameters: scale not given: the % may be the effect or the level left
[12] = test system: Nucleic Acid; assay: Induction of supercoiled pDesR3 DNA cleavage assessed as half life of DNA cleavage after 2 to 12 hrs by agarose gel electrophoresis; format: nucleic-acid assay
[13] = test system: Nucleic Acid; assay: Induction of supercoiled pDesR3 DNA cleavage after 2 to 12 hrs by agarose gel electrophoresis; format: nucleic-acid assay
[14] = test system: T47D; assay: Cytotoxicity against human T47D cells; format: functional, cell-based
[15] = test system: MDA-MB-435; assay: Cytotoxicity against human MDA-MB-435 cells; format: functional, cell-based

`CC[C@H](C)[C@H]1C(=O)O[C@H]2c3cc(C)cc(O)c3C3=C(C(=O)c4c(O[C@H]5C[C@@H](O)[C@@H](O)[C@H](C)O5)cccc4C3=O)N12` [JADOMYCIN B] was tested, and the Activity [1] was “inactive”, the Activity [2] was “Active” and the Activity [3] was “inactive”. The Activity [4] was “inactive”, the Activity [5] was “inactive” and the Activity [6] was “inactive”. The Activity [7] was “inactive”, the Activity [8] was “inactive” and the Activity [9] was “inactive”. For the same molecule, the Activity [10] was “inactive”, the Activity [11] was 98% and the T1/2 [12] was 45 min. It also gave an EC50 [13] of 1700 nM, an EC50 [14] of 9.92 µM and an EC50 [15] of 6.89 µM.
